Substitutions are numbered along the chain they refer to.

The values that follow come from paper PMC10269664, “Cinnamaldehyde Targets the LytTR DNA-Binding Domain of the Response Regulator AgrA to Attenuate Biofilm Formation of Listeria monocytogenes” (Microbiology Spectrum, 2023).

One series has as its target T1, AgrCCyto (Listeria monocytogenes, UniProt Q8YAR5).
T1 construct: gene lmo0050
The conditions noted are these: 10 μM ATP; 37 °C.

A further series deals with T2, AgrCFL (Listeria monocytogenes, UniProt Q8YAR5).
T2 construct: gene lmo0050
T2 sequence (Q8YAR5 entry or part of it): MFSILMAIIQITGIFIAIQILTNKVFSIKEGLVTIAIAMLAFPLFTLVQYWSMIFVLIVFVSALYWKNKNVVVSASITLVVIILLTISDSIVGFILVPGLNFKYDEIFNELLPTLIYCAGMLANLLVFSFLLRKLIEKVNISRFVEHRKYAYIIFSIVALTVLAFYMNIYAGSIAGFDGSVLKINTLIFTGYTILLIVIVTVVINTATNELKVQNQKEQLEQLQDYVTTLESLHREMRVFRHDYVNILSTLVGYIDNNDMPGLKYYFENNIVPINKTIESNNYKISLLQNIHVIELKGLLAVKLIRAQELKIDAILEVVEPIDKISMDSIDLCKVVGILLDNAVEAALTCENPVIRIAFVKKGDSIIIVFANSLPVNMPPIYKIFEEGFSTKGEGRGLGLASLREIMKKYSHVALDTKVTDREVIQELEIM
The conditions noted are these: 10 μM ATP; 37 °C.

Series [1] has as its target T3, AgrA (Listeria monocytogenes, UniProt Q8YAR4, G176A).
T3 construct: gene lmo0051
The series can be described thus: biochemical.

Series [2] has as its target T4, AgrA (Listeria monocytogenes, UniProt Q8YAR4, H29A).
T4 construct: gene lmo0051
Briefly: biochemical.

The target of series [3] is T5, AgrA (Listeria monocytogenes, UniProt Q8YAR4, D158A).
T5 construct: gene lmo0051
The series can be described thus: biochemical.

The target of series [4] is T6, AgrA (Listeria monocytogenes, UniProt Q8YAR4).
T6 construct: gene lmo0051; entire protein, 242 residues, pET-28a His-tag, E. coli BL21(DE3), fluorescently labelled for MST
The series can be described thus: microscale thermophoresis. It counts as binding. To be noted: read-out: Mean Kd ± SD. An excerpt: microscale thermophoresis on AgrA
In general terms: MST reads how a fluorescent partner responds to local heating, with and without ligand.

In series [5] the target is T7, AgrA (Listeria monocytogenes, UniProt Q8YAR4, R179A).
T7 construct: gene lmo0051
Briefly: biochemical.

Series [6] concerns the target T8, AgrA (Listeria monocytogenes, UniProt Q8YAR4, D159A).
T8 construct: gene lmo0051
Briefly: biochemical.

Series [7] addresses T9, AgrA (Listeria monocytogenes, UniProt Q8YAR4, N178A).
T9 construct: gene lmo0051
Briefly: biochemical.

Series [8] concerns the target T10, AgrA (Listeria monocytogenes, UniProt Q8YAR4, K177A).
T10 construct: gene lmo0051
Briefly: biochemical.

The target in series [9] is T11, AgrA (Listeria monocytogenes EGD-e) (UniProt Q8YAR4).
T11 sequence: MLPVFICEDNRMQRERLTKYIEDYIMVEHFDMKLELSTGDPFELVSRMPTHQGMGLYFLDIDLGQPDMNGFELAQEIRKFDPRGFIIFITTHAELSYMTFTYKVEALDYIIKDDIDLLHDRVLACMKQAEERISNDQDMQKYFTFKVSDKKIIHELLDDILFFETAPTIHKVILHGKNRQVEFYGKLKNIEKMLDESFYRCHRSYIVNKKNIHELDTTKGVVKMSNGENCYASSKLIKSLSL
The series can be described thus: EMSA. A general note: Mobility shift assays separate free from complexed probe on a gel.

The target of series [10] is T12, AgrA N178A N178A (Listeria monocytogenes EGD-e) (UniProt Q8YAR4).
T12 sequence: T11 sequence with N178A
The series can be described thus: EMSA.

T1 sequence (Q8YAR5 entry or part of it): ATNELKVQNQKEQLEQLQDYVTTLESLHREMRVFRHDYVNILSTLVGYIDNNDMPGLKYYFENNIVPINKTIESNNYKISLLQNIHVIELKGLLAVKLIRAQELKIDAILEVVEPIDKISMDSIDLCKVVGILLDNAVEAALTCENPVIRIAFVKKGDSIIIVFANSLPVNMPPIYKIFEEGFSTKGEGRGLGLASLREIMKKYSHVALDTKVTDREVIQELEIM

Turning to `Nc1ncnc2c1ncn2[C@@H]1O[C@H](COP(=O)(O)OP(=O)(O)OP(=O)(O)O)[C@@H](O)[C@H]1O` [ATP], the “Kinase-Lumi chemiluminescence, residual ATP” value on AgrCCyto is “After incubation, the remaining ATP was reduced with increasing concentrations of AgrCCyto”; on AgrCFL it was “AgrCFL was also subjected to the kinase assay, and similar results were observed”.
Turning to `O=CC=Cc1ccccc1` [cinnamaldehyde], the Kd (commonly the concentration at which binding is half-saturated) at AgrA [1] turned out to be 53.2 ± 1.52 µM; at AgrA [2], 57.7 ± 6.47 µM; on AgrA [3], 62 ± 4.8 µM; at AgrA [4] it was 55.9 ± 2.38 µM; on AgrA [5], 175 ± 17.8 µM; at AgrA [6], 59 ± 3.44 µM. Also, the Kd on AgrA [7] turned out to be 138 ± 11.4 µM; at AgrA [8], 58.3 ± 4.42 µM.
With “CTAATTCACCTCCACTAATATTTTACAACGAATTTACCCATAATAACCAAAAATGTAATGAAATGTCCGATTCTTGTCATGAACGACCAAAAAAGAGCAGAATTGCCGATTTTTTGGATACATTTCAGAATATTCGAACGTGTAAAAAGGACTGTATAATAGGCTTAAAAACCCATATTAATATTTTATTTAAGTGAGTTTATTCATAAAAAAAACCAACTGCAAAAGAATGTTCACAGTTGGCTTTTCCATTTTA (double strand) [agr promoter P2]”, the figures for the binding entry in series [9] and in [10] were “binds” and “binds more weakly”, respectively.
